As usually defined, the IC50 is the point on the concentration scale where inhibition reaches its midpoint.

For one molecule, IC50 results are on record in US20020115867A1, “Imidazolyl/benzimidazolyl-terminated alkylamino ethynyl alanine amino diol compounds for treatment of hypertension” (priority 1992, published 2002).

The assay deals with T1, human renin (Homo sapiens, UniProt P00797).
T1 construct: purchased National Institute for Biological Standards, London
T1 sequence (P00797 67-406): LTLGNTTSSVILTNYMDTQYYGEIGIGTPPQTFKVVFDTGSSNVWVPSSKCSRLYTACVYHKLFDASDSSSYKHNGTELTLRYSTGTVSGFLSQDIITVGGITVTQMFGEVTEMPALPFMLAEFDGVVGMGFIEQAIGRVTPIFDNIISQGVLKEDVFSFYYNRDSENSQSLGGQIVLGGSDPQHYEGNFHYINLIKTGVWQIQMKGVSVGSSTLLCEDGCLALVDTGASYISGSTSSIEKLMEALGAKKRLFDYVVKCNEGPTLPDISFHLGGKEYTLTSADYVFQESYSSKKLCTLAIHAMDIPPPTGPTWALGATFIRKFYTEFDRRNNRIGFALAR
Kind of assay: Human renin inhibition in vitro. The format is biochemical. The conditions noted are these: human plasma angiotensinogen, pH 7.4, 37° C., two hours; angiotensin I by radioimmunoassay. As to the method: Compounds of Formula I were evaluated as inhibitors of human renin in an in vitro assay, as follows: This human renin inhibition test has been previously described in detail [Papaioannou et al., Clinical and Experimental Hypertension, A7(9), 1243-1257 (1985)]. Human renin was obtained from the National Institute for Biological Standards, London. An incubation mixture was prepared containing the following components: in a total volume of 0.25 mL: 100 mM Tris-acetate buffer at pH 7.4, 25×10^−6 Goldblatt units of renin, 0.05 mL of plasma from human volunteers taking oral contraceptives, 6.0 mM Na-EDTA, 2.4 mM phenylmethyl sulfonyl fluoride, 1.5 mM 8-hydroxyquinoline, 0.4 mg/mL bovine serum albumin (BSA), and 0.024 mg/mL neomycin sulfate. This mixture was incubated for two hours at 37° C. in the presence or absence of renin inhibitors. The produced angiotensin I was determined by radioimmunoassay (New England Nuclear kit). Test compounds to be assayed were dissolved in DMSO and diluted with 100 mM Tris-acetate buffer at pH 7.4 containing 0.5% BSA to the appropriate concentration. The final concentration of organic solvent in the reaction mixture was less than 1%. Control incubations at 37° C. were used to correct for effects of organic solvent on renin activity.

In turn, `C#CC[C@H](NC(=O)[C@@H](CC(=O)N(C)CCn1ccnc1)Cc1ccccc1)C(=O)N[C@@H](CC1CCCCC1)[C@@H](O)[C@@H](O)CC(C)C` (relative stereo) [Example 1, N^1-[1R*-[[[1S,1R*-(cyclohexylmethyl)-2S*,3R*-dihydroxy-5-methylhexyl]amino]carbonyl]-3-butynyl]-N^4-[2-(1H-imidazol-1-yl)ethyl]-N^4-methyl-2S*-(phenylmethyl)butanediamide] registered a half-inhibitory concentration (IC50) of 0.18 nM.
